Legend:
B16F10 melanoma cell [1] = assay: Growth of B16F10 melanoma cells, number of cells counted with trypan blue and hemocytometer; assay type: cell-based, mouse; details: for cells in culture relative to the control culture: 50 μM; for cells in culture relative to the control culture / cells in culture relative to the control culture (survival ratio): cultured for 48 hours, B16F10; for cells in culture relative to the control culture (survival ratio): 100 μM; for action on the growth of melanoma cells (in words): 10-300 μM capsaicin, 10-100 μM Dohevanil, 48 hours, versus control
Method: B16F10 melanoma cell used for the comparison was a malignant melanoma cell derived from a mouse. The melanoma cells were cultured under 5% CO2 condition at 37 degrees Celsius in DMEM culture medium (pH7.2) including 10% of bovine fetus serum and penicillin/streptomycin solution. After the cells reached from 70% to 80% confluent, the cells were treated with trypsin-EDTA to release from the wall of culture device and were subjected to passage culture.
The number of cells were measured by the process comprising suspending the cells collected, sufficiently mixing the suspension with a trypan blue stain solution in the same volume of the suspension, watching the suspension using a phase contrast microscope and measuring the number of cells with a hemocytometer (Burker-Turk hemocytometer, Nippon Rinsho Kikai Kogyo Ltd.)
In order to examine the action of capsaicin to the growth of melanoma cells, the number of the cells were measured after 10 μM, 30 μM, 50 μM, 100 μM, or 300 μM of capsaicin was added to the MDEM media in which the melanoma cells exist and then the cells were cultured for 48 hours. […] In order to examine the action of Dohevanil to the growth of melanoma cells, the number of the cells were measured in the same manner as conducted for capsaicin except that capsaicin was replaced with Dohevanil. The melanoma cells were cultured in 10 μM, 30 μM, 50 μM, or 100 μM of Dohevanil.

B16F10 melanoma cell [2] = assay: Hoechst 33342 fluorescence microscopy for apoptosis in melanoma cells; assay type: cell-based, mouse; details: Hoechst33342, each concentration, versus control
Method: The observation using the fluorescence microscope was carried out by the process comprising washing with PBS (−) a suspension of B16F10 cells treated with an agent for a given time (1×10^6 cells/ml), fixing the cells with 4% paraformaldehyde overnight, washing the cell fixed solution with PBS(−), suspending the cells in 20 μl of PBS (−), mixing 2 μl of fluorescence indicator (Hoechst 33342 (1 mM)) with each 5 μl of the cell suspension, placing a cover glass on the mixture, watching it using the fluorescence microscope (U region) and photographing.
The shape of the cells was observed using Hoechst33342 (dye) which specifically combined with the chromosome by fluorescence microscope to find out whether or not the cell death by capsaicin or Dohevanil was due to the apoptosis. As a result, the aggregation of chromatins and the disorder of nuclear shape, which are characteristics of the cell death by apoptosis, were observed by comparison with the control in each concentration of capsaicin or Dohevanil.

HeLa cells = assay: HeLa cell growth by WST-1 method and LDH active release; assay type: cell-based, human; details: for survival ratio of the cells: 100 μM, HeLa cells; for action on the growth of HeLa cells (in words): 10, 30, 50, 100 μM
Method: (§1) In order to make a comparison between the anti-tumor effects of capsaicin and Dohevanil, the following experimentation was carried out using HeLa cells derived from human uterocervical cancer as a tomor cell and NIH/3T3 cells as a normal cell. These cells used in the experimentation were cultured in RPMI-1640 medium (pH7.2) with 5% bovine fetal serum under the culture conditions being maintained in 5% CO2 and at 37 degrees Celsius. capsaicin or Dohevanil was added to each of the cell suspensions in the concentration of 10 μM, 30 μM, 50 μM, or 100 μM and then the cells were cultured. In this comparative example, the capability of cell growth was measured by WST-1 method and LDH active release into the supernatant as an indicator.
(§2) In this connection, the term “WST-1 method” used in the example means a method comprising reducing a formazan by using a reductase activity of mitochondria and determining an absorption of the coloring. The absorption may be used as an indicator of the cell growth because the reductase activity of mitochondria is lost if the cells die. The term “LDH active release” as used herein means that LDH (lactate dehydrogenase) is released due to a destruction of cell membrane accompanied with a cell death, and the measured value of the active release can be used as an indicator of the cell death.

NIH/3T3 cells = assay: NIH/3T3 normal cell growth by WST-1 method and LDH active release; assay type: cell-based; details: concentration 30 μM or less
Method: as §1, §2

caspase 3 activity [3] = assay: Measurement of caspase 3 activity (Example 6); assay type: cell-based
[4] = system: human acute leukemia cell U937; assay: U937 cell growth by cell differential staining with trypan blue; assay type: cell-based; details: for survival ratio of the cells: 100 μM, U937 cells; for action on the growth of U937 cells (in words): 10, 30, 50, 100 μM
Method: In order to make a comparison between the anti-leukemic cell effects of capsaicin and Dohevanil, the following experimentation was carried out using a human acute leukemia cell U937. The U937 cells were cultured in RPMI-1640 medium (pH7.2) with 5% bovine fetal serum under the culture conditions being maintained in 5% CO2 and at 37 degrees Celsius. capsaicin or Dohevanil was added to each of the cell suspensions in the concentration of 10 μM, 30 μM, 50 μM,or 100 μM and then the cells were cultured. In this comparative example, the capability of cell growth was evaluated using the measured value as an indicator obtained by a method for the cell differential staining with trypan blue.
The method for the cell differential staining with trypan blue is a method utilizing the characters that trypan blue combines with a protein to color in blue and that trypan blue enters into the dead cells due to the loss of a membrane function to prevent from its invasion. Since the dead cells are colored in blue with trypan blue, the survival ratio of the cells can be determined by counting the stained cells using a microscope.

caspase 3 activity [5] = assay: Measurement of caspase 3 activity (Example 7, U937); assay type: cell-based, human
Method: In particular, when the concentration is 100 μM, although the survival ratio of the cells with capsaicin is about 50%, that with Dohevanil is zero (0) %. Accordingly, it is apparent as compared with capsaicin that Dohevanil is very low in the degree of hotness and stimulus, and coincidentally has a higher anti-leukemic cell effects.

[6] = system: Hela cell (uterocervica cancer cell); details: low concentration; cited from earlier work
[7] = system: HL-60 cell (acute promyelocytic leukemia cell); details: low concentration; cited from earlier work
[8] = system: normal cells of human mammary gland epithelium and of liver and kidney of the rat; details: cited from earlier work
B16F10 melanoma cell [9] = assay: Phase contrast microscope observation of treated melanoma cells; assay type: cell-based, mouse; details: Dohevanil 50 μM compared with capsaicin 300 μM
Method: The observation of cytomorphology using the light microscope was carried out by counting with TMS (NIKON Corporation) and photographing, after plating the cells on a multiplate, and culturing it for a given time.
The shape and appearance of the melanoma cells treated in the presence of capsaicin in the concentration of 300 μM or Dohevanil in the concentration of 50 μM was observed using a phase contrast microscope.

| Structure (SMILES) | cells in culture relative to the control culture (B16F10 melanoma cell [1]) | cells in culture relative to the control culture (survival ratio) (B16F10 melanoma cell [1]) | action on the growth of melanoma cells (in words) (B16F10 melanoma cell [1]) | induction of apoptosis (aggregation of chromatins, disorder of nuclear shape) (B16F10 melanoma cell [2]) | survival ratio of the cells (HeLa cells) | action on the growth of HeLa cells (in words) (HeLa cells) | action to NIH/3T3 normal cells (in words) (NIH/3T3 cells) | apoptosis according to caspase 3 activity (caspase 3 activity [3]) | survival ratio of the cells [4] | action on the growth of U937 cells (in words) [4] | apoptosis according to caspase 3 activity (caspase 3 activity [5]) | proliferative inhibitory effect (in words) [6] | proliferative inhibitory effect (in words) [7] | proliferative inhibitory effect to normal cells (in words) [8] | melanoma cells adhered to the wall of culture vessel (in words) (B16F10 melanoma cell [9]) |
| --- | --- | --- | --- | --- | --- | --- | --- | --- | --- | --- | --- | --- | --- | --- | --- |
| COc1cc(CNC(=O)CCCCC=CC(C)C)ccc1O [capsaicin, 8-methyl-N-vanillyl-6-nonenamide] | about 60% | about 50% | suppressed the growth of the cells depending on the concentration | induce the apoptosis to melanoma cells | about 50% | suppress the growth of HeLa cells depending on their concentrations | hardly act | induce the apoptosis to cause the cell death | about 50% | suppress the growth of U937 cells depending on their concentrations | induce the apoptosis to cause the cell death | proliferative inhibitory effect in a low concentration | proliferative inhibitory effect in a low concentration | without any proliferative inhibitory effects | – |
| CC/C=C\C/C=C\C/C=C\C/C=C\C/C=C\C/C=C\CCC(=O)NCc1ccc(O)c(OC)c1 [Dohevanil, N-vanillyl-4,7,10,13,16,19-Docosahexaenamide] | about 10% | 0% | suppressed the growth of the cells depending on the concentration | strongly induces the apoptosis | 0% | suppress the growth of HeLa cells depending on their concentrations | hardly act | induce the apoptosis to cause the cell death | 0% | suppress the growth of U937 cells depending on their concentrations | induce the apoptosis to cause the cell death | – | – | – | extremely reduced |

Reference: patent publication US20040110844A1, “Anti-tumor pharmaceutical composition comprising N-vanillyl fatty acid amide” (KUREHA CHEMICAL INDUSTRY COMPANY, Limited, priority 2002, published 2004)
